Test results published in US10391134B2, “Anti-candida compositions and uses thereof” (PharmAlp SA, priority 2014, dated 2019).

Columns and labels:
Format in all cases: cell-based
[1] = tested on: human vaginal epithelial cells; experiment: Neutral red screening of human cytotoxicity; conditions: 24 h incubation; positive control and validation component
Protocol: Potential cytotoxicity of the extracts was assayed in the neutral red-screening test using human vaginal epithelial cells at 80% confluence corresponding to 2*10^5 cells per well of 96 wells as follows:
The extracts freshly extracted and stored once frozen were incubated for 24 h with the epithelial cells at different concentrations. At the end of the experiment the cells were washed 3× and incubated with Neutral Red (NR) medium (50 μg/ml) for 3 hours at 37° C., 5.0% CO2/air. A water solution at 0.5% ethanol was used as negative control (present in all samples). […] Cells were then washed and NR quantified. 100% staining intensity indicate intact lysosomal activity. 0% indicates little to no survival of human cells. Results were analysed according to the Hill function. IC50 or concentrations with highest impairment of cell survival were determined.
Desorb solution was prepared in a ratio of water-ethanol-acetic acid glacial (49:50:1; v:v) during 20 min with shaking. Wavelength used for spectrophotometric reading of NR optical density was 540 nm. Test Criteria were that the differences between VC mean; R2>0.85; Point >0%<100%. The results are presented on FIG. 4.

[2] = tested on: Candida albicans cells (ATCC MYA-2876); experiment: Candida growth test (MIC, visual turbidity score)
Protocol: Candida albicans cells (ATCC MYA-2876) were incubated in SB (Sabouraud broth, Biolife 4020002) for 24 h at 30° C. and 150 rpm. The obtained culture was enumerated with a Neubauer Improved count chamber and concentration adjusted to 2.5·10^3 cfu/ml by dilution with sterile SB. Vaginal cells (End1/E6E7, ATCC CRL-2615) have been grown in Keratinocyte SFM (Gibco 17005-42) with 0.1 ng/ml human recombinant EGF (Gibco 10450-013), 0.05 mg/ml bovine pituitary extract (Gibco 13028-014) and additional calcium chloride 44.1 mg/L according to instructions by the provider, with media change every 2-3 days.
Minimal inhibitory concentration (MIC) of the plant extracts and antifungal substances was accomplished through tissue culture plates of 96 wells with flat bottom (Becton Dickinson). In each well 100 μl of the 2.5·10^3 cfu/ml Candida albicans culture obtained as described above in SB was mixed with 100 μl plant extract of different concentrations (0.025, 0.083, 0.25, 0.83, 2.5 and 8.3 mg/ml). Together with each dilution series a blank well was prepared with 100 μl culture and 100 μl of 5% ethanol-water solution. Fluconazole (Sigma, F8929) has been taken as positive control. Fluconazole solutions of different concentrations (4, 16, 32, 65, 650 μg/ml) have been freshly prepared prior testing. A well with only broth (100 μl) plus water (100 μl) and a well with broth plus plant extract (100 μl) were also prepared for color control. The plate was then incubated at 37° C. for 24 h and 48 h.
The evaluation of the growth inhibitory activities was conducted by visual observation of the turbidity of the wells and by attribution of a score from 0 (no growth) to 4 (maximal growth, similar to control well). MIC value of a substance is defined as the concentration which permits to reach a score of less than […]. […] In fact, the score of 2 represents an inhibition of Candida concentrations of about 80%. Results are presented on FIG. 2. […]

[3] = tested on: Candida albicans adhesion on human vaginal epithelial cells (End1/E6E7); experiment: Inhibitory activity on Candida adhesion on human vaginal epithelial cells
Protocol: A tissue culture plate of 24 wells was prepared with vaginal epithelial cells. 0.5 ml of a culture of 10^5 cells/ml in keratinocyte SFM were put in each well of a 24-well plate and incubated for 2 days at 37° C. and 5% CO2. Each well was filled (after taking away the vaginal cells growth media) with 1 ml C. albicans culture of 5·10^6 cfu/ml mixed with test substance. As control, the solvent of each test substance was also tested. The plate was incubated at 37° C. for 6 h or 2 h ([…] for Example 2, 2 h for Example 4), permitting Candida cells to adhere to vaginal cells. After incubation the Candida culture was pipetted away from each well, which were then washed 3 times with 0.5 ml PBS. The epithelial cells-Candida layer was treated with a 0.05% trypsin solution (concentration of 1 ml/25 cm^2), which was then neutralized by addition of DMEM with 10% FCS. […] The obtained cell solution was diluted and analyzed with pour plate method (Manuel Suisse des denrées alimentaires, Chapitre 56, 2000, revision partielle 2004): 1 ml of the appropriate dilution was pipetted into an empty Petri dish and about 15-20 ml of SDA, cooled down to 45-50° C., poured over it.
After 24 h incubation at 37° C. the colonies were counted and the result (in cfu/ml) multiplied 1.5 times to obtain the number of adhered cell in each well. […]

CCCCCCCCCCCCOS(=O)(=O)[O-].[Na+] [SDS]
IC50 neutral red cytotoxicity [1]: 8 to 25 µg/mL

OC(Cn1cncn1)(Cn1cncn1)c1ccc(F)cc1F [fluconazole]
Stability of the growth inhibition effect, 24 h versus 48 h ([2]; Example 1, 24 h and 48 h of treatment): maximal effect at 24 h and reduced effects at 48 h
Candida growth score (arbitrary unit, 0 no growth to 4 maximal growth) ([2]; after 48 h incubation, 2 separate runs): 2 to 3 arbitrary unit
Inhibition of Candida growth ([2]; all 5 concentrations applied (4, 16, 32, 65, 650 μg/ml)): inhibited Candida growth to a similar degree
Adhesion of Candida, average value (100% = control) ([3]; Example 1, fluconazole at 1 mg/ml, 6 hour incubation): 100%

Pepstatin A
% inhibition (adhesion of Candida albicans to human epithelial cells) ([3]; Table 3, at 1 μM): 5 (at 1 μM) %
